In patent US7691874B2, “Neuroprotective properties of dextrorotatory morphinans” (priority 2004, dated 2010):
Marks after values point to notes of the source that are not given here.

Legend:
MA-treated mice [1] = experiment: Methamphetamine (MA)-induced hyperthermia; type: in vivo; details: 24 mg/kg; MA 7.5 mg/kg i.p. x 4 at 2-h intervals
Procedure: Rectal temperature was recorded at 40 min after each MA treatment. […] Mice were sacrificed at 3 days after final MA injection.
FIGS. 10A-10B show effect of morphinans on the methamphetamine (MA)-induced hyperthermia. Mice received i.p. injections of MA (four injections of 7.5 mg/kg each) at 2-h intervals under the ambient temperature of 22.0±0.5° C. Temperatures were recorded at 40 min after each MA treatment (Arrow=MA injection).

σ1 receptors = σ1 receptors (Homo sapiens, UniProt Q99720); details: cited from earlier work
Sequence of σ1 receptors (Q99720 whole entry): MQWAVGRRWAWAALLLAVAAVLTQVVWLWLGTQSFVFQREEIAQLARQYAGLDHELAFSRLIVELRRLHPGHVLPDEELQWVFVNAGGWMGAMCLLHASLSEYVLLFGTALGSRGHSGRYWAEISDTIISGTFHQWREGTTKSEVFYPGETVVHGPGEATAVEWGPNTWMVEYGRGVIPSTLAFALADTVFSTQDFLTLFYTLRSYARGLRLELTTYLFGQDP

[2] = tested on: kainate or maximal electric shock; details: kainate (24) or maximal electric shock (27); cited from earlier work
MA-treated mice [3] = experiment: MA-induced FRA-IR in the striatum; details: morphinan 20 mg/kg i.p.; MA 1 mg/kg i.p./day x 7
Procedure: Therefore, brains were removed and used for immunocytochemical analysis at 18 h after the final cocaine/MA treatment. The coronal sections containing striatum were processed for FRA immunocytochemistry. […] The FRA antibody was used at 1:2,000 as the optimal dilution. The FRA-IR in the striatum was calculated using image analysis systems with a polaroid digital microscopic camera (Optimas version 6.2).

MA-treated mice [4] = experiment: MA-induced behavioural sensitization; details: morphinan 20 mg/kg i.p., last 3 days of wash-out (Ex. 3.12)
Procedure: Morphinans (20 mg/kg, i.p.) were administered last 3 days of wash-out period.

LPS-treated mice [5] = experiment: Hypokinesia induced by intrastriatal LPS; details: 12 or 24 mg/kg, twice before bilateral intrastriatal LPS
Procedure: Male mice were anesthetized with chloral hydrate (200 mg/kg, i.p.) and positioned in a small-animal stereotaxic apparatus. […] LPS (2 μg in a volume of 2 μl of PBS) was injected into both sides of the striatum over a period of 2 min, and the injection needle was kept in place for 2 min after the injection. Control animals received striatal injection with PBS.
Ten min after the last treatment with each drug, locomotor activity was measured for 30 min. After measuring the locomotor activity (i.e. 40 min after the last drug injection), the ‘absolute turn angular’ was analyzed in a 3-min monitoring period using an automated video-tracking system (Noldus Information Technology, Wagenin, The Netherlands) to examine locomotor patterns. […] Eight test boxes (40×40×30 cm high) were operated simultaneously by an IBM computer. Animals were studied individually during locomotion in each test box, where they were adapted for 10 min before starting the experiment. […] The distance traveled in cm by the animals in horizontal locomotor activity was analyzed (13, 25, 27). Data were collected and analyzed between 0900 and 1700 hr.

MPTP-treated mice [6] = experiment: Nigral tyrosine hydroxylase-like immunoreactivity in MPTP-treated mice; details: 24 mg/kg i.p.
Procedure: Each morphinan was administered 30 min prior to every injection of MPTP for last three days (from day 4th to day 7th). Animals were sacrificed 24 h after the last MPTP treatment.

MA-treated mice [7] = experiment: MA-induced hyperlocomotion; type: in vivo; details: morphinan 20 mg/kg i.p. 30 min before MA 1 mg/kg i.p./day x 7
Procedure: FIGS. 39A-39D show effect of morphinans on the MA-induced hyperactivity in the mice. Each morphinan (20 mg/kg, i.p.) was administered 30 minutes prior to MA (1 mg/kg, i.p.). All treatments were performed for 7 days.

MA-treated mice [8] = experiment: Striatal dopamine and metabolites in MA-treated mice; type: in vivo; details: for Concentration DA in the striatum: 3 days after final MA
Source text: Mice were sacrificed at 3 days after final MA injection.

LPS-treated mice [9] = experiment: Striatal dopamine and metabolites in LPS-treated mice; type: in vivo; details: for Concentration DA in the striatum: 3 weeks after LPS
Source text: (§1) Control animals received striatal injection with PBS.
Mice were sacrificed at 3 weeks after LPS treatment.

MPTP-treated mice [10] = experiment: Striatal dopamine and metabolites (HPLC-EC) in MPTP-treated mice; details: for Concentration DA in the striatum: mean ± S.E.M., 8 animals
MPTP-treated mice [11] = experiment: Hypokinesia (reduction in locomotor activity) induced by MPTP; type: in vivo; details: 12 or 24 mg/kg i.p. 30 min before MPTP (20 mg/kg/day x 7), last three days
cocaine-treated mice [12] = experiment: Cocaine-induced Fos-related antigen-immunoreactivity (FRA-IR) in the striatum; details: cocaine 5 mg/kg; morphinan 20 mg/kg i.p.
C57 BL/6 mice [13] = experiment: Conditioned place preference (psychological dependence) following repeated administration of morphinans or PCP; type: in vivo; details: 20 or 40 mg/kg i.p. (PCP 2.5 or 5 mg/kg); vs saline
Procedure: On day 14, the guillotine doors were raised. […] Data were analyzed between 0900 and 1700 hr.

[14] = tested on: NMDA receptor associated PCP sites; details: cited from earlier work
cocaine-treated mice [15] = experiment: Cocaine-induced hyperlocomotion; type: in vivo
In short: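 Morphinans (15 and 30 mg/kg, i.p.) or dimemorfan (20 mg/kg, i.p.) given 30 minutes before cocaine (5 and 20 mg/kg, i.p.); treatments continued for 7 days. Locomotion scored as central activity (non-specific movement in box center) and marginal activity (circling).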

MA-treated mice [16] = experiment: Hypokinesia induced by MA; type: in vivo; details: 12 and 24 mg/kg; 3 days after final MA
C57 BL/6 mice [17] = experiment: Locomotor activity and locomotor pattern following repeated administration of morphinans or PCP; type: in vivo
MA-treated mice [18] = experiment: Nigral TH-IR in MA-treated mice; details: 24 mg/kg i.p.
LPS-treated mice [19] = experiment: Nigral TH-IR in LPS-treated mice; type: in vivo; details: 24 mg/kg i.p.
Source text: FIGS. 8A-8B. […] Magnification=40×.
as §1

MA-treated mice [20] = experiment: MA model, HM versus L-dopa/carbidopa: hyperthermia; type: in vivo; details: MA 7.5 mg/kg i.p. x 4
Procedure: FIGS. 31A-31B show effect of drugs on the MA-induced hyperthermia. Mice received MA injections as 2 hrs' time interval under the ambient temperature of 22.0±0.5° C.
Experimental paradigm for MA with or without compounds is in FIG. 30. Treatment with MA (7.5 mg/kg, i.p.×four times as two hour time interval) produces hyperthermia (P<0.01).

LPS-treated mice [21] = experiment: LPS model, HM versus L-dopa/carbidopa: mortality; type: in vivo; details: intrastriatal LPS 2 μg x 4/head; 2 weeks
Procedure: Mortality was observed by 2 weeks after LPS injection. *P<0.01 vs. Saline+LPS (x^2-test).
The neuroprotective effect of HM was compared with L-dopa, carbidopa, or carbidopa plus L-dopa in response to dopaminergic damage induced by LPS. Intrastriatal injection of LPS (2 μg×4/head) produced high mortality (ten animals died out of twelve animals in the 2 weeks after LPS administration).

MPTP-treated mice [22] = experiment: MPTP model, HM versus L-dopa/carbidopa: locomotor activity; type: in vivo; details: HM 24 mg/kg i.p., L-dopa 200 mg/kg p.o., carbidopa 20 mg/kg p.o., 2 weeks before MPTP
Procedure: FIGS. 20A-20B show effects of carbidopa, L-dopa, carbidopa+L-dopa and HM on the changes in locomotor activity (A) and locomotor pattern (B) induced by MPTP in mice.
A prescription drug for treating Parkinsonian patients is L-dopa or carbidopa plus L-dopa. Thus, the neuroprotective effects of HM was compared with L-dopa, carbidopa, or carbidopa plus L-dopa. […] Locomotor activity was examined for 60 min after final treatment of MPTP. Mice were sacrificed at 24 h after final MPTP administration. HM (24 mg/kg, i.p.), L-dopa (200 mg/kg, p.o.) with or without carbidopa (20 mg/kg, p.o.) was administered for 2 weeks before first MPTP challenge.

LPS-treated mice [23] = experiment: LPS model, HM versus L-dopa/carbidopa: nigral TH-IR; details: mouse, in vivo
Source text: FIG. 27 show effects of carbidopa, L-dopa, carbidopa+L-dopa and HM on the nigral tyrosine hydroxylase-like immunoreactivity (TH-IR) of the mice treated with LPS.

LPS-treated mice [24] = experiment: LPS model, HM versus L-dopa/carbidopa: microglia F4/80-like immunoreactivity; type: in vivo; details: substantia nigra

CN1CC[C@]23CCCC[C@H]2[C@H]1Cc1ccc(OCC2CC2)cc13 [CM, 3-cyclopropylmethoxy-17-methylmorphinan]
effect on MA-induced hyperthermia (rectal temperature) (MA-treated mice [1]): attenuated by all morphinans used in this study | affinity for σ1 receptors (σ1 receptors): high affinity ligands | anticonvulsant effect [2]: exhibited anticonvulsant effects | effect on MA-induced FRA-IR in the striatum (MA-treated mice [3]): apparently attenuated | effect on MA-induced behavioural sensitization (MA-treated mice [4]): significantly reduced | effect on LPS-induced decrease in locomotor activity (LPS-treated mice [5]): significantly prevented LPS-induced decrease in locomotor activity | effect on MPTP-induced decrease in nigral TH-positive cells (MPTP-treated mice [6]): significantly attenuated the decrease in TH-positive cells | effect on MA-induced hyperlocomotion (MA-treated mice [7]): consistently effective in attenuating hyperlocomotion induced by MA | effect on MA-induced reductions in striatal DA, DOPAC and HVA (MA-treated mice [8]; 24 mg/kg pretreatment): significantly protected | Concentration DOPAC in the striatum (MA-treated mice [8]; morphinan 12 (mg/kg) + MA): 82 ± 10 ng/100 mg wet tissue | Concentration HVA in the striatum (MA-treated mice [8]; morphinan 12 (mg/kg) + MA): 83 ± 9 ng/100 mg wet tissue | Concentration DA in the striatum (MA-treated mice [8]; morphinan 12 (mg/kg) + MA, mean ± S.E.M., 8 animals): 668 ± 81 ng/100 mg wet tissue | Concentration DOPAC in the striatum (MA-treated mice [8]; morphinan 24 (mg/kg) + MA): 99 ± 10^b ng/100 mg wet tissue | Concentration HVA in the striatum (MA-treated mice [8]; morphinan 24 (mg/kg) + MA): 94 ± 12^b ng/100 mg wet tissue | Concentration DA in the striatum (MA-treated mice [8]; morphinan 24 (mg/kg) + MA): 777 ± 66^c ng/100 mg wet tissue | effect on LPS-induced reductions in striatal DA, DOPAC and HVA (LPS-treated mice [9]; 24 mg/kg pretreatment): significantly protected | Concentration DOPAC in the striatum (LPS-treated mice [9]; morphinan 12 (mg/kg) + LPS): 70 ± 7 ng/100 mg wet tissue | Concentration HVA in the striatum (LPS-treated mice [9]; morphinan 12 (mg/kg) + LPS): 83 ± 6 ng/100 mg wet tissue | Concentration DA in the striatum (LPS-treated mice [9]; morphinan 12 (mg/kg) + LPS, mean ± S.E.M., 8 animals): 482 ± 54 ng/100 mg wet tissue | Concentration DOPAC in the striatum (LPS-treated mice [9]; morphinan 24 (mg/kg) + LPS): 86 ± 9^c ng/100 mg wet tissue | Concentration HVA in the striatum (LPS-treated mice [9]; morphinan 24 (mg/kg) + LPS): 89 ± 7^c ng/100 mg wet tissue | Concentration DA in the striatum (LPS-treated mice [9]; morphinan 24 (mg/kg) + LPS): 684 ± 56^c ng/100 mg wet tissue | effect on MPTP-induced reductions in striatal DA, DOPAC and HVA (MPTP-treated mice [10]; 24 mg/kg pretreatment): significantly protected | Concentration DOPAC in the striatum (MPTP-treated mice [10]; morphinan 12 (mg/kg) + MPTP): 58 ± 6 ng/100 mg wet tissue | Concentration HVA in the striatum (MPTP-treated mice [10]; morphinan 12 (mg/kg) + MPTP): 68 ± 9 ng/100 mg wet tissue | Concentration DA in the striatum (MPTP-treated mice [10]; morphinan 12 (mg/kg) + MPTP): 489 ± 69 ng/100 mg wet tissue | Concentration DOPAC in the striatum (MPTP-treated mice [10]; morphinan 24 (mg/kg) + MPTP): 78 ± 10^b ng/100 mg wet tissue | Concentration HVA in the striatum (MPTP-treated mice [10]; morphinan 24 (mg/kg) + MPTP): 89 ± 7^b ng/100 mg wet tissue | Concentration DA in the striatum (MPTP-treated mice [10]; morphinan 24 (mg/kg) + MPTP): 587 ± 76^b ng/100 mg wet tissue | effect on MPTP-induced reduction in locomotor activity (MPTP-treated mice [11]): significantly prevented MPTP-induced reduction in locomotor activity | effect on cocaine-induced FRA-IR in the striatum (cocaine-treated mice [12]): apparently attenuated | conditioned place preference (CPP) (C57 BL/6 mice [13]): almost no CPP effects | affinity for NMDA receptor associated PCP sites [14]: very low affinities | effect on locomotor activity induced by low dose of cocaine (cocaine-treated mice [15]; cocaine 5 mg/kg i.p. x 7 days, morphinan 15 or 30 mg/kg (DF 20 mg/kg) i.p.): consistently attenuated locomotor activity induced by a low dose of cocaine | effect on hyperactivity induced by high dose of cocaine (cocaine-treated mice [15]; cocaine 20 mg/kg i.p. x 7 days, morphinan 15 or 30 mg/kg i.p. 30 min before): not uniform | effect on MA-induced reduction in locomotor activity (MA-treated mice [16]): significantly prevented MA-induced reduction in locomotor activity | locomotor pattern (tracings) (C57 BL/6 mice [17]; 40 mg/kg i.p. (PCP 5 mg/kg), FIG. 3): did not produce significant marginal activity | marginal activity (circling behaviour; absolute turn angular) (C57 BL/6 mice [17]; 20 or 40 mg/kg i.p./day x 7 (PCP 2.5 or 5 mg/kg), 3-min period, vs saline): did not significantly affect marginal activity | locomotor activity (total distance moved) (C57 BL/6 mice [17]; 20 or 40 mg/kg i.p./day x 7 days, 30 min after final treatment, vs saline): comparable to that with saline | effect on MA-induced decrease in nigral TH-positive cells (MA-treated mice [18]): significantly attenuated the decrease in TH-positive cells | effect on LPS-induced reduction in nigral TH-positive cells (LPS-treated mice [19]): significantly attenuated the reduction in TH-positive cells

C[C@@](Cc1ccc(O)c(O)c1)(NN)C(=O)O [carbidopa]
effect on MA-induced hyperthermia (MA-treated mice [20]): significantly attenenuated | effect on mortality induced by LPS (LPS-treated mice [21]): appears to attenuate mortality induced by LPS | effect on MPTP-induced decrease in locomotor activity (MPTP-treated mice [22]): appeared to increase | effect on LPS-induced loss in nigral TH-IR (LPS-treated mice [23]): significantly attenuated | effect on LPS-induced increase in F4/80-like immunoreactivity (microglia) (LPS-treated mice [24]): significantly attenuated
